Laboratory results as given in the NIST ThermoML archive (doi:10.1021/je5002686).
Several values for one entry are separate records, joined by “and”; a condition that tells them apart may be missing. Identical values can stand only once. ± gives the expanded uncertainty stated by the source.

Details: Liquid, Vibrating tube method

CCOC(F)(C(F)(F)C(F)(F)C(F)(F)F)C(F)(C(F)(F)F)C(F)(F)F (stereo not given) [2-trifluoromethyl-3-ethoxydodecafluorohexane]
Details | mass density
350 K, 40000 kPa | 1622.9 ± 1.4 kg/m3 and 1622.8 ± 1.4 kg/m3
350 K, 40010 kPa | 1622.7 ± 1.4 kg/m3
350 K, 44990 kPa | 1632.7 ± 1.5 kg/m3 and 1632.5 ± 1.5 kg/m3
350 K, 45000 kPa | 1632.5 ± 1.5 kg/m3
350 K, 49990 kPa | 1641.9 ± 1.6 kg/m3 and 1641.7 ± 1.6 kg/m3
350 K, 50000 kPa | 1641.8 ± 1.6 kg/m3
370 K, 490 kPa | 1465.7 ± 0.9 kg/m3 and 1465.9 ± 0.9 kg/m3
370 K, 500 kPa | 1466 ± 0.9 kg/m3
370 K, 1000 kPa | 1468.6 ± 0.9 kg/m3 and 1468.4 ± 0.9 kg/m3 and 1468.5 ± 0.9 kg/m3
370 K, 1990 kPa | 1473.6 ± 0.9 kg/m3 and 1473.5 ± 0.9 kg/m3
370 K, 2000 kPa | 1473.4 ± 0.9 kg/m3
370 K, 2990 kPa | 1478.5 ± 0.9 kg/m3
370 K, 3000 kPa | 1478.2 ± 0.9 kg/m3 and 1478.5 ± 0.9 kg/m3
370 K, 3990 kPa | 1483.1 ± 0.9 kg/m3
370 K, 4000 kPa | 1483.1 ± 0.9 kg/m3 and 1483 ± 0.9 kg/m3
370 K, 4990 kPa | 1487.6 ± 0.9 kg/m3
370 K, 5000 kPa | 1487.5 ± 0.9 kg/m3 and 1487.6 ± 0.9 kg/m3
370 K, 10000 kPa | 1508.2 ± 0.9 kg/m3 and 1507.9 ± 0.9 kg/m3 and 1508.1 ± 0.9 kg/m3
370 K, 14990 kPa | 1526 ± 1 kg/m3 and 1525.8 ± 1 kg/m3
370 K, 19990 kPa | 1541.7 ± 1 kg/m3 and 1541.8 ± 1 kg/m3
370 K, 20000 kPa | 1541.9 ± 1 kg/m3
370 K, 25000 kPa | 1556.3 ± 1.1 kg/m3 and 1556.1 ± 1.1 kg/m3 and 1556.2 ± 1.1 kg/m3
370 K, 30000 kPa | 1569.5 ± 1.2 kg/m3 and 1569.2 ± 1.2 kg/m3 and 1569.4 ± 1.2 kg/m3
370 K, 34990 kPa | 1581.5 ± 1.3 kg/m3
370 K, 35000 kPa | 1581.7 ± 1.3 kg/m3 and 1581.4 ± 1.3 kg/m3
370 K, 40000 kPa | 1593 ± 1.4 kg/m3 and 1592.7 ± 1.4 kg/m3 and 1592.8 ± 1.4 kg/m3
370 K, 45000 kPa | 1603.6 ± 1.5 kg/m3 and 1603.3 ± 1.5 kg/m3 and 1603.4 ± 1.5 kg/m3
370 K, 49990 kPa | 1613.2 ± 1.6 kg/m3 and 1613.4 ± 1.6 kg/m3
370 K, 50020 kPa | 1613.6 ± 1.6 kg/m3
390 K, 490 kPa | 1417.9 ± 0.9 kg/m3
390 K, 500 kPa | 1417.8 ± 0.9 kg/m3 and 1417.7 ± 0.9 kg/m3
390 K, 990 kPa | 1420.9 ± 0.9 kg/m3 and 1421.1 ± 0.9 kg/m3
390 K, 1000 kPa | 1421.1 ± 0.9 kg/m3
390 K, 1990 kPa | 1427.2 ± 0.9 kg/m3 and 1427.4 ± 0.9 kg/m3
390 K, 2000 kPa | 1427.1 ± 0.9 kg/m3
390 K, 3000 kPa | 1433.2 ± 0.9 kg/m3 and 1433.1 ± 0.9 kg/m3
390 K, 3010 kPa | 1433.3 ± 0.9 kg/m3
390 K, 3990 kPa | 1438.8 ± 0.9 kg/m3 and 1438.7 ± 0.9 kg/m3 and 1438.9 ± 0.9 kg/m3
390 K, 5000 kPa | 1444.3 ± 0.9 kg/m3 and 1444.1 ± 0.9 kg/m3 and 1444.4 ± 0.9 kg/m3
390 K, 10000 kPa | 1468.4 ± 0.9 kg/m3 and 1468.3 ± 0.9 kg/m3 and 1468.5 ± 0.9 kg/m3
390 K, 14990 kPa | 1488.9 ± 1 kg/m3 and 1489 ± 1 kg/m3
390 K, 15000 kPa | 1488.9 ± 1 kg/m3
390 K, 19990 kPa | 1506.8 ± 1 kg/m3 and 1507 ± 1 kg/m3
390 K, 20000 kPa | 1507 ± 1 kg/m3
390 K, 25000 kPa | 1523 ± 1.1 kg/m3 and 1522.9 ± 1.1 kg/m3 and 1523.1 ± 1.1 kg/m3
390 K, 29990 kPa | 1537.6 ± 1.2 kg/m3
390 K, 30000 kPa | 1537.6 ± 1.2 kg/m3 and 1537.4 ± 1.2 kg/m3
390 K, 35000 kPa | 1550.9 ± 1.2 kg/m3 and 1550.8 ± 1.2 kg/m3 and 1551 ± 1.3 kg/m3
390 K, 40000 kPa | 1563.2 ± 1.3 kg/m3 and 1563.1 ± 1.3 kg/m3 and 1563.3 ± 1.3 kg/m3
390 K, 44990 kPa | 1574.8 ± 1.4 kg/m3
390 K, 45000 kPa | 1574.7 ± 1.4 kg/m3 and 1574.6 ± 1.4 kg/m3
390 K, 49980 kPa | 1585.3 ± 1.5 kg/m3
390 K, 49990 kPa | 1585.5 ± 1.5 kg/m3
410 K, 990 kPa | 1370.5 ± 0.9 kg/m3
410 K, 3990 kPa | 1392.5 ± 0.9 kg/m3
410 K, 4000 kPa | 1392.7 ± 0.9 kg/m3
410 K, 4990 kPa | 1399.3 ± 0.9 kg/m3
410 K, 10000 kPa | 1427.9 ± 0.9 kg/m3
410 K, 15000 kPa | 1451.6 ± 0.9 kg/m3 and 1451.5 ± 0.9 kg/m3
410 K, 19990 kPa | 1471.8 ± 1 kg/m3
410 K, 20000 kPa | 1472 ± 1 kg/m3
410 K, 24990 kPa | 1489.9 ± 1.1 kg/m3 and 1489.7 ± 1.1 kg/m3
410 K, 29990 kPa | 1506 ± 1.1 kg/m3
410 K, 30000 kPa | 1505.8 ± 1.1 kg/m3
410 K, 34990 kPa | 1520.6 ± 1.2 kg/m3
410 K, 35000 kPa | 1520.5 ± 1.2 kg/m3
410 K, 40000 kPa | 1534 ± 1.3 kg/m3 and 1533.9 ± 1.3 kg/m3
410 K, 45000 kPa | 1546.4 ± 1.4 kg/m3
410 K, 45010 kPa | 1546.3 ± 1.4 kg/m3
410 K, 50000 kPa | 1558 ± 1.5 kg/m3
410 K, 50020 kPa | 1557.9 ± 1.5 kg/m3
430 K, 500 kPa | 1310.6 ± 0.9 kg/m3 and 1310.4 ± 0.9 kg/m3
430 K, 1000 kPa | 1316.1 ± 0.9 kg/m3 and 1315.9 ± 0.9 kg/m3 and 1316.2 ± 0.9 kg/m3
430 K, 2000 kPa | 1326.2 ± 0.9 kg/m3 and 1326 ± 0.9 kg/m3 and 1326.3 ± 0.9 kg/m3
430 K, 3000 kPa | 1335.6 ± 0.9 kg/m3 and 1335.4 ± 0.9 kg/m3 and 1335.7 ± 0.9 kg/m3
430 K, 4000 kPa | 1344.3 ± 0.9 kg/m3 and 1344.1 ± 0.9 kg/m3
430 K, 4990 kPa | 1352.1 ± 0.9 kg/m3 and 1352.4 ± 0.9 kg/m3
430 K, 5000 kPa | 1352.4 ± 0.9 kg/m3
430 K, 9990 kPa | 1386.6 ± 0.9 kg/m3 and 1386.4 ± 0.9 kg/m3
430 K, 14990 kPa | 1413.9 ± 0.9 kg/m3
430 K, 15000 kPa | 1413.8 ± 0.9 kg/m3 and 1414 ± 0.9 kg/m3
430 K, 19990 kPa | 1436.8 ± 1 kg/m3 and 1437 ± 1 kg/m3
430 K, 20000 kPa | 1436.9 ± 1 kg/m3
430 K, 24990 kPa | 1456.9 ± 1 kg/m3
430 K, 25000 kPa | 1456.9 ± 1 kg/m3 and 1456.8 ± 1 kg/m3
430 K, 29990 kPa | 1474.6 ± 1.1 kg/m3
430 K, 30000 kPa | 1474.7 ± 1.1 kg/m3
430 K, 30010 kPa | 1474.5 ± 1.1 kg/m3
430 K, 34990 kPa | 1490.4 ± 1.2 kg/m3
430 K, 35000 kPa | 1490.6 ± 1.2 kg/m3
430 K, 40000 kPa | 1505.2 ± 1.3 kg/m3 and 1505 ± 1.3 kg/m3
430 K, 40010 kPa | 1505.2 ± 1.3 kg/m3
430 K, 45000 kPa | 1518.6 ± 1.4 kg/m3 and 1518.4 ± 1.4 kg/m3
430 K, 49960 kPa | 1530.9 ± 1.4 kg/m3
430 K, 49990 kPa | 1531 ± 1.4 kg/m3
430 K, 50000 kPa | 1530.9 ± 1.4 kg/m3
450 K, 1990 kPa | 1269.4 ± 0.9 kg/m3
450 K, 3980 kPa | 1292.6 ± 0.9 kg/m3
450 K, 4000 kPa | 1292.9 ± 0.9 kg/m3
450 K, 4990 kPa | 1302.9 ± 0.9 kg/m3 and 1303 ± 0.9 kg/m3
450 K, 10000 kPa | 1344.2 ± 0.9 kg/m3 and 1344.1 ± 0.9 kg/m3 and 1344.3 ± 0.9 kg/m3
450 K, 14980 kPa | 1375.6 ± 0.9 kg/m3
450 K, 14990 kPa | 1375.9 ± 0.9 kg/m3
450 K, 15000 kPa | 1375.9 ± 0.9 kg/m3
450 K, 19990 kPa | 1401.9 ± 1 kg/m3 and 1401.7 ± 1 kg/m3
450 K, 25000 kPa | 1424.1 ± 1 kg/m3 and 1424 ± 1 kg/m3
450 K, 29990 kPa | 1443.6 ± 1.1 kg/m3 and 1443.4 ± 1.1 kg/m3
450 K, 30000 kPa | 1443.6 ± 1.1 kg/m3
450 K, 34990 kPa | 1460.8 ± 1.1 kg/m3 and 1461 ± 1.1 kg/m3
450 K, 35000 kPa | 1461 ± 1.1 kg/m3
450 K, 39990 kPa | 1476.8 ± 1.2 kg/m3
450 K, 40000 kPa | 1476.6 ± 1.2 kg/m3 and 1476.8 ± 1.2 kg/m3
450 K, 45000 kPa | 1491.2 ± 1.3 kg/m3 and 1491.1 ± 1.3 kg/m3
450 K, 49980 kPa | 1504.5 ± 1.4 kg/m3
450 K, 49990 kPa | 1504.5 ± 1.4 kg/m3
450 K, 50000 kPa | 1504.4 ± 1.4 kg/m3
470 K, 5010 kPa | 1250.5 ± 0.9 kg/m3
470 K, 9990 kPa | 1300.6 ± 0.9 kg/m3 and 1300.8 ± 0.9 kg/m3
470 K, 10010 kPa | 1300.7 ± 0.9 kg/m3
470 K, 14990 kPa | 1337.3 ± 0.9 kg/m3
470 K, 15000 kPa | 1337.3 ± 0.9 kg/m3 and 1337.5 ± 0.9 kg/m3
470 K, 19990 kPa | 1366.6 ± 0.9 kg/m3
470 K, 20000 kPa | 1366.7 ± 0.9 kg/m3 and 1366.9 ± 0.9 kg/m3
470 K, 25000 kPa | 1391.4 ± 1 kg/m3 and 1391.3 ± 1 kg/m3 and 1391.5 ± 1 kg/m3
470 K, 29990 kPa | 1412.7 ± 1.1 kg/m3
470 K, 30000 kPa | 1412.8 ± 1.1 kg/m3 and 1412.9 ± 1.1 kg/m3
470 K, 34990 kPa | 1431.7 ± 1.1 kg/m3 and 1431.8 ± 1.1 kg/m3
470 K, 35010 kPa | 1431.7 ± 1.1 kg/m3
470 K, 39990 kPa | 1448.8 ± 1.2 kg/m3
470 K, 40000 kPa | 1448.7 ± 1.2 kg/m3
470 K, 44990 kPa | 1464.2 ± 1.3 kg/m3 and 1464.1 ± 1.3 kg/m3
470 K, 45000 kPa | 1464.3 ± 1.3 kg/m3
470 K, 49990 kPa | 1478.4 ± 1.4 kg/m3
470 K, 50000 kPa | 1478.6 ± 1.4 kg/m3
470 K, 50010 kPa | 1478.5 ± 1.4 kg/m3
